In the supplement of paper PMC10307832:

Legend:
CX-5461 + AZD7762 = compound: Cc1cnc(CNC(=O)c2c(=O)c3ccc(N4CCCN(C)CC4)nc3n3c2sc2ccccc23)cn1 [CX-5461] + NC(=O)Nc1cc(-c2cccc(F)c2)sc1C(=O)N[C@H]1CCCNC1 [AZD7762] (partner 0.2 µM); assay: relative viability (nuclei count vs DMSO), 5 days (fraction); higher = more cells survive
Procedure, shortened: (§1)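 Values are medians from duplicate plates. Each reflects relative viability, defined as the nuclei count of treated wells over that of vehicle wells. Lung cancer cell lines in 1536-well plates were pin-tool dosed one day after seeding with one drug alone or with a fixed anchor-drug dose plus five library-drug doses (not always all listed) in √10 steps, then fixed, stained and imaged at 4× after 5 days.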

CX-5461 + Vorinostat = compound: Cc1cnc(CNC(=O)c2c(=O)c3ccc(N4CCCN(C)CC4)nc3n3c2sc2ccccc23)cn1 [CX-5461] + O=C(CCCCCCC(=O)Nc1ccccc1)NO [Vorinostat] (partner 1 µM); assay: as above
Procedure, shortened: as §1

Cell Line	relative viability (CX-5461 + AZD7762; first compound 0.01 µM)	relative viability (CX-5461 + AZD7762; first compound 0.03162 µM)	relative viability (CX-5461 + AZD7762; first compound 0.1 µM)	relative viability (CX-5461 + AZD7762; first compound 0.3162 µM)	relative viability (CX-5461 + AZD7762; first compound 1 µM)	relative viability (CX-5461 + Vorinostat; first compound 0.01 µM)	relative viability (CX-5461 + Vorinostat; first compound 0.03162 µM)	relative viability (CX-5461 + Vorinostat; first compound 0.1 µM)	relative viability (CX-5461 + Vorinostat; first compound 0.3162 µM)	relative viability (CX-5461 + Vorinostat; first compound 1 µM)
201T	0.6	0.682	0.621	0.543	0.491	1.07	1.04	1.02	0.559	0.976
A-427	0.807	0.637	0.612	0.627	0.408	0.879	0.884	0.872	0.805	0.548
ABC-1	0.753	0.777	0.845		0.608	1.2		1.02	0.442	0.394
BEN	0.737	0.615	0.555	0.745	0.531	0.596	0.588	0.514	0.536	0.608
CAL-12T	0.715	0.658	0.601	0.698	0.449	0.833	0.951	0.74	0.577	0.337
COR-L23						0.612	0.436	0.451	0.389	0.218
COR-L 105						0.929	0.872	0.728	0.71	0.599
ChaGo-K-1	0.976	0.909	0.758	0.478	0.698	0.786	0.81	0.699	0.262	0.513
EKVX	0.778	0.687	0.763		0.45	0.738	0.815	0.758	0.726	0.784
EMC-BAC-2	1.06	1.04	0.864	0.919	0.566	0.435	0.138	0.269	0.203	0.201
EPLC-272H	0.208	0.25	0.215		0.259	0.47	0.362	0.362	0.48	0.458
H3255	0.967	0.82	0.943	0.834	0.794	0.767	0.771	0.9		0.734
HARA	0.318	0.234	0.361	0.202	0.294	0.516	0.568	0.485		0.476
HCC-15	1.24	1.43	1.22	1.15	1.23	0.926	0.882	0.818	0.834	0.768
HCC-44	1.02	1.06	0.952	0.963	0.967	1.17	1.16	1.03	1.13	1.03
HCC-78	0.862	0.695	0.601	0.596	0.614	0.405	0.477	0.459	0.402	0.42
HCC-366	0.285	0.254	0.177	0.117	0.0411	0.441	0.408	0.166	0.242	0.0455
HCC-827	0.193	0.195	0.193	0.22	0.182	0.854	0.887	0.85	0.567	0.923
HOP-62	0.643	0.854	0.424	0.194	0.356	0.542	0.856	0.655	0.271	0.405
IA-LM						1	0.925	1.11	0.828	1.01
LC-2-ad	0.834	0.919	0.836	0.848	0.742	0.732	0.768	0.716	0.659	0.491
LCLC-97TM1	0.279	0.424	0.177		0.237	0.917	0.965	0.769	0.102	0.661
LCLC-103H	0.823	0.829	0.819	0.68	0.762	0.784	0.855	0.827	0.517	0.741
LK-2	0.443	0.376	0.299		0.223	0.422	0.315	0.367	0.2	0.307
LOU-NH91	0.787	0.758	0.74	0.475	0.693	0.985	0.957	0.87	0.49	0.697

Cell Line	relative viability (CX-5461 + AZD7762; first compound 0.01 µM)	relative viability (CX-5461 + AZD7762; first compound 0.03162 µM)	relative viability (CX-5461 + AZD7762; first compound 0.1 µM)	relative viability (CX-5461 + AZD7762; first compound 0.3162 µM)	relative viability (CX-5461 + AZD7762; first compound 1 µM)	relative viability (CX-5461 + Vorinostat; first compound 0.01 µM)	relative viability (CX-5461 + Vorinostat; first compound 0.03162 µM)	relative viability (CX-5461 + Vorinostat; first compound 0.1 µM)	relative viability (CX-5461 + Vorinostat; first compound 0.3162 µM)	relative viability (CX-5461 + Vorinostat; first compound 1 µM)
LU99A	0.44	0.303	0.212	0.245	0.122	0.529	0.544	0.377	0.323	0.215
LXF-289	1.16	1.12	1.08		0.873	0.803	0.744	0.635		0.544
NCI-H23	0.23	0.224	0.186	0.212	0.167	0.755	0.577	0.492	0.458	0.3
NCI-H322M	0.531	0.517	0.526	0.523	0.509	0.894	0.802	0.9	0.569	0.743
NCI-H358	0.546	0.593	0.372	0.474	0.363	0.745	0.78	0.701	0.27	0.402
NCI-H441	1	1.31	1.11	1.36	0.963	0.538	0.984	0.707	0.618	0.556
NCI-H460	0.627	0.513	0.295	0.563	0.046	0.721	0.909	0.216	0.48	0.0282
NCI-H520						0.734	0.681	0.661	0.642	0.291
NCI-H522	1.09	0.98	0.713		0.79	1	1.1	0.955		0.852
NCI-H596	1.07	1.01	0.965	1.07	0.515	0.608	0.686	0.664	0.706	0.306
NCI-H647	0.617	0.384	0.489	0.439	0.0774	0.646	0.536	0.441	0.548	0.251
NCI-H650	1.03	1.01	0.727	1.05	0.623	0.462	0.294	0.635	0.399	0.312
NCI-H661						0.822	0.8	0.734	0.472	0.583
NCI-H727	0.48	0.709	0.473	0.648	0.566	1.4	1.2	1.28	1.03	1.05
NCI-H838	0.971	0.941	1.01	0.698	0.696	0.669	0.789	0.76	0.548	0.617
NCI-H1355	0.75	0.833	0.613	0.78	0.288	0.711	0.736	0.625	0.432	0.43
NCI-H1395	0.377	0.328	0.382	0.384	0.337	0.672	0.635	0.535	0.379	0.473
NCI-H1437	1.1	1.05	1.11	1.09	1.04	0.942	0.871	0.791	0.858	0.749
NCI-H1648	0.647	0.785	0.655	0.771	0.592	0.526	0.355	0.49	0.495	0.483
NCI-H1650						0.619	0.466	0.33	0.61	0.261
NCI-H1651	0.48	0.491	0.328	0.588	0.143	0.55	0.552	0.546	0.566	0.194
NCI-H1666	0.796	0.912	0.728	0.856	0.69	0.986	1.05	1.07	0.981	0.975
NCI-H1703		0.11	0.104		0.107					
NCI-H1734	0.583	0.602	0.317	0.327	0.286	0.83	0.908	0.744	0.278	0.35
NCI-H1755	0.453	0.447	0.38	0.413	0.406	0.806	0.793	0.735	0.722	0.667

Cell Line	relative viability (CX-5461 + AZD7762; first compound 0.01 µM)	relative viability (CX-5461 + AZD7762; first compound 0.03162 µM)	relative viability (CX-5461 + AZD7762; first compound 0.1 µM)	relative viability (CX-5461 + AZD7762; first compound 0.3162 µM)	relative viability (CX-5461 + AZD7762; first compound 1 µM)	relative viability (CX-5461 + Vorinostat; first compound 0.01 µM)	relative viability (CX-5461 + Vorinostat; first compound 0.03162 µM)	relative viability (CX-5461 + Vorinostat; first compound 0.1 µM)	relative viability (CX-5461 + Vorinostat; first compound 0.3162 µM)	relative viability (CX-5461 + Vorinostat; first compound 1 µM)
NCI-H1792	0.838	0.677	0.5	0.667	0.0872					
NCI-H1793	0.61	0.44	0.313	0.391	0.168	0.894	0.927	0.786	0.367	0.645
NCI-H1915	0.75	0.74	0.643	0.673	0.608	0.554	0.567	0.503	0.427	0.482
NCI-H1944	0.444	0.512	0.358	0.269	0.195	0.538	0.569	0.383	0.25	0.271
NCI-H1975	0.792	0.729	0.737	0.847	0.425	0.686	0.719	0.684	0.696	0.459
NCI-H1993	0.754	0.893	0.716	0.81	0.78	1.11	0.988	0.889	0.403	0.638
NCI-H2009						0.755	0.716	0.652	0.661	0.332
NCI-H2023						0.564	0.355		0.15	0.0756
NCI-H2085	1.05	1.03	0.918	1.04	0.719	0.854	0.82	0.708	0.865	0.719
NCI-H2087	1.22	1.42	1.44	1.43	1.13	0.625	0.709	0.754	0.696	0.527
NCI-H2126	1.1	1.05	0.981	1.05	0.903	0.725	0.861	0.79	0.522	0.881
NCI-H2170	1.09	0.92	1.01	0.917	0.504	0.887	0.772	0.846	0.743	0.703
NCI-H2228						0.516	0.66	0.54	0.793	0.114
NCI-H2342	0.444	0.486	0.484	0.522	0.469	0.686	0.768	0.642	0.619	0.776
NCI-H2347	0.825	0.716	0.688	0.767	0.605	0.457	0.608	0.512	0.552	0.501
NCI-H2405	0.783	0.66	0.705	0.821	0.414	1.04	0.872	0.994	0.939	0.669
NCI-H3122	1.06	0.946	0.936	1.03	0.607	1.02	1.02	1.12	1.07	0.967
PC-3 [JPC-3]	0.803		0.822	0.865	0.759	0.765		0.783	0.869	0.72
PC-14	0.393	0.455	0.351	0.407	0.227	0.65	0.797	0.533	0.527	0.106
RERF-LC-KJ	1	0.897	0.954	0.807	0.901	0.724	0.756	0.532	0.589	0.54
SK-LU-1						0.826	0.721	0.777	0.777	0.538
SK-MES-1						1.22	1.22	1.13	1.19	0.654
SW 1573						0.726	0.668	0.116	0.15	0.214
UMC-11						0.338	0.35	0.384	0.398	0.202
